Measured values from PMC12257073 (Cancer Research Communications, 2025).
“Also recorded” adds a separate entry of the source.

Assay: Adverse events (treatment-related and all-cause) and dose-limiting toxicities, NCI CTCAE version 4.0
Conditions: for Patients with treatment-related grade 3+ AEs: seven patients
[1] = Group 2, all-cause adverse events, Missing Categories
[2] = Group 2, all-cause adverse events, Skin and subcutaneous tissue disorders
[3] = Group 2, all-cause adverse events, Vascular disorders
[4] = group 1, 37 mg TP-0903 + decitabine
[5] = group 1, TP-0903 37 mg/day + decitabine, n = 15
[6] = group 2, 25 mg TP-0903 + decitabine
[7] = group 2, TP-0903 25 mg/day + decitabine, n = 12
[8] = overall, TP-0903 + decitabine, n = 27

Protocol: The phase 1b portion of the study used a standard 3 + 3 dose-escalation design with a starting dose level 1 (DL1) of 37 mg oral daily TP-0903 (Supplementary Table S2) based on experience with 50 mg oral daily as a single agent in patients with solid tumors ([25]). Dose-limiting toxicities (DLT) were evaluated to establish the dose brought forward for an expansion cohort (phase 2). Seven patients were enrolled in the phase 1b study, which was completed in January 2021 with the decision to move forward with an expansion cohort of 37 mg oral daily. Across the phase 1b and phase 2 studies, 15 patients were enrolled and started on 37 mg TP-0903 oral daily on days 1 to 21 (group 1). […] One additional patient was enrolled at this time but was inadvertently started on 25 mg TP-0903 oral daily on days 1 to 21. […] In May 2021, an amendment was approved to allow enrollment of a new group 2 at 25mg oral daily on days 1 to 21 of TP-0903 (DL-1) in stage 2 of the phase 2 study.
Clinical response was assessed according to the modified 2017 European LeukemiaNet AML criteria ([26]). The primary endpoint was achievement of CR within six cycles of therapy. Secondary endpoints included toxicity, duration of response, OS, and the proportion of eligible patients who effectively transitioned to allogeneic stem cell transplantation. Exploratory endpoints included pharmacokinetics (PK), correlative genetic, and biochemical data; correlations between morphologic remission, spectral flow cytometry, and mutational remission; and duration of remission or survival. […] Adverse events (AE) were graded according to the NCI Common Terminology Criteria for Adverse Events version 4.0 ([27]).

CN1CCN(Cc2ccc(Nc3ncc(Cl)c(Nc4ccccc4S(=O)(=O)N(C)C)n3)cc2)CC1.O=C(O)C(O)C(O)C(=O)O.O=C(O)C(O)C(O)C(=O)O [TP-0903, 2-(5-chloro-2-(4-((4-methylpiperazin-1-yl)methyl)phenylamino)pyrimidin-4-yl)amino-N,N-dimethylbenzene-1-sulfonamide di-tartrate salt]
Hypotension (intermittent), All [1]: 1 (8.3) | Hypotension (intermittent), Grade 1 2 [1]: 1 (8.3) | Hypotension (intermittent), Grade 3+ [1]: 0 (0) | INR - Increased, All [1]: 0 (0) | INR - Increased, Grade 1 2 [1]: 0 (0) | INR - Increased, Grade 3+ [1]: 0 (0) | Inflammation (bilateral knee), All [1]: 1 (8.3) | Inflammation (bilateral knee), Grade 1 2 [1]: 1 (8.3) | Inflammation (bilateral knee), Grade 3+ [1]: 0 (0) | Itching (intermittent), All [1]: 1 (8.3) | Itching (intermittent), Grade 1 2 [1]: 1 (8.3) | Itching (intermittent), Grade 3+ [1]: 0 (0) | Microvascular ischemic disease, All [1]: 1 (8.3) | Microvascular ischemic disease, Grade 1 2 [1]: 1 (8.3) | Microvascular ischemic disease, Grade 3+ [1]: 0 (0) | Pain (leg), All [1]: 1 (8.3) | Pain (leg), Grade 1 2 [1]: 1 (8.3) | Pain (leg), Grade 3+ [1]: 0 (0) | Retinal Detachment, All [1]: 0 (0) | Retinal Detachment, Grade 1 2 [1]: 0 (0) | Retinal Detachment, Grade 3+ [1]: 0 (0) | Steroid-induced hyperglycemia, All [1]: 1 (8.3) | Steroid-induced hyperglycemia, Grade 1 2 [1]: 1 (8.3) | Steroid-induced hyperglycemia, Grade 3+ [1]: 0 (0) | Symptomatic anemia, All [1]: 1 (8.3) | Symptomatic anemia, Grade 1 2 [1]: 0 (0) | Symptomatic anemia, Grade 3+ [1]: 1 (8.3) | lung fullness, All [1]: 0 (0) | lung fullness, Grade 1 2 [1]: 0 (0) | lung fullness, Grade 3+ [1]: 0 (0) | neuropathy (BLE), All [1]: 1 (8.3) | neuropathy (BLE), Grade 1 2 [1]: 1 (8.3) | neuropathy (BLE), Grade 3+ [1]: 0 (0) | pericarditis (intermittent), All [1]: 1 (8.3) | pericarditis (intermittent), Grade 1 2 [1]: 1 (8.3) | pericarditis (intermittent), Grade 3+ [1]: 0 (0) | Dry skin, All [2]: 0 (0) | Dry skin, Grade 1 2 [2]: 0 (0) | Dry skin, Grade 3+ [2]: 0 (0) | Ecchymosis, All [2]: 4 (33.3) | Ecchymosis, Grade 1 2 [2]: 4 (33.3) | Ecchymosis, Grade 3+ [2]: 0 (0) | Erythema nodosum, All [2]: 1 (8.3) | Erythema nodosum, Grade 1 2 [2]: 1 (8.3) | Erythema nodosum, Grade 3+ [2]: 0 (0) | Erythema, All [2]: 0 (0) | Erythema, Grade 1 2 [2]: 0 (0) | Erythema, Grade 3+ [2]: 0 (0) | Hyperhidrosis, All [2]: 1 (8.3) | Hyperhidrosis, Grade 1 2 [2]: 1 (8.3) | Hyperhidrosis, Grade 3+ [2]: 0 (0) | Nail discolouration, All [2]: 0 (0) | Nail discolouration, Grade 1 2 [2]: 0 (0) | Nail discolouration, Grade 3+ [2]: 0 (0) | Petechiae, All [2]: 3 (25) | Petechiae, Grade 1 2 [2]: 3 (25) | Petechiae, Grade 3+ [2]: 0 (0) | Photosensitivity reaction, All [2]: 0 (0) | Photosensitivity reaction, Grade 1 2 [2]: 0 (0) | Photosensitivity reaction, Grade 3+ [2]: 0 (0) | Pruritus, All [2]: 0 (0) | Pruritus, Grade 1 2 [2]: 0 (0) | Pruritus, Grade 3+ [2]: 0 (0) | Rash papular, All [2]: 1 (8.3) | Rash papular, Grade 1 2 [2]: 1 (8.3) | Rash papular, Grade 3+ [2]: 0 (0) | Rash, All [2]: 1 (8.3) | Rash, Grade 1 2 [2]: 1 (8.3) | Rash, Grade 3+ [2]: 0 (0) | Scab, All [2]: 1 (8.3) | Scab, Grade 1 2 [2]: 1 (8.3) | Scab, Grade 3+ [2]: 0 (0) | Skin disorder, All [2]: 0 (0) | Skin disorder, Grade 1 2 [2]: 0 (0) | Skin disorder, Grade 3+ [2]: 0 (0) | Skin lesion, All [2]: 1 (8.3) | Skin lesion, Grade 1 2 [2]: 1 (8.3) | Skin lesion, Grade 3+ [2]: 0 (0) | Swelling face, All [2]: 1 (8.3) | Swelling face, Grade 1 2 [2]: 1 (8.3) | Swelling face, Grade 3+ [2]: 0 (0) | Hypertension, All [3]: 1 (8.3) | Hypertension, Grade 1 2 [3]: 0 (0) | Hypertension, Grade 3+ [3]: 1 (8.3) | Hypotension, All [3]: 1 (8.3) | Hypotension, Grade 1 2 [3]: 0 (0) | Hypotension, Grade 3+ [3]: 1 (8.3) | Lymphoedema, All [3]: 1 (8.3) | Lymphoedema, Grade 1 2 [3]: 1 (8.3) | Lymphoedema, Grade 3+ [3]: 0 (0) | Peripheral venous disease, All [3]: 1 (8.3) | Peripheral venous disease, Grade 1 2 [3]: 1 (8.3) | Peripheral venous disease, Grade 3+ [3]: 0 (0) | Serious AEs related to TP-0903 (all treated patients, TP-0903 + decitabine): no patients had serious AEs related to TP-0903; also recorded: no serious AEs attributable to TP-0903 | Diarrhea, grade 1 to 2 treatment-related AE (any grade) [4]: 33% | Fatigue, grade 3+ treatment-related AE [4]: 6% | Nausea, grade 1 to 2 treatment-related AE (any grade) [4]: 47% | Neutropenia, grade 3+ treatment-related AE [4]: 33% | Stomatitis, grade 3+ treatment-related AE [4]: 6% | Thrombocytopenia, grade 3+ treatment-related AE [4]: 27% | Patients with treatment-related grade 3+ AEs [4]: 47% | Anemia, treatment-related AE grade ≥3 [5]: 2 (13.3) no. (%) | Decreased appetite, treatment-related AE grade ≥3 [5]: 0 (0) no. (%) | Febrile neutropenia, treatment-related AE grade ≥3 [5]: 0 (0) no. (%) | Leukopenia, treatment-related AE grade ≥3 [5]: 3 (20) no. (%) | Lymphocyte count decreased, treatment-related AE grade ≥3 [5]: 0 (0) no. (%) | Neutropenia, treatment-related AE grade ≥3 [5]: 5 (33.3) no. (%) | Pneumonia, treatment-related AE grade ≥3 [5]: 0 (0) no. (%) | Thrombocytopenia, treatment-related AE grade ≥3 [5]: 4 (26.7) no. (%) | Decreased appetite, grade 1 to 2 treatment-related AE (any grade) [6]: 25% | Decreased appetite, grade 3+ treatment-related AE [6]: 8% | Diarrhea, grade 1 to 2 treatment-related AE (any grade) [6]: 25% | Febrile neutropenia, grade 3+ treatment-related AE [6]: 33% | Leukopenia, grade 3+ treatment-related AE [6]: 33% | Lymphocyte count decrease, grade 3+ treatment-related AE [6]: 42% | Nausea, grade 1 to 2 treatment-related AE (any grade) [6]: 42% | Neutropenia, grade 3+ treatment-related AE [6]: 50% | Pneumonia, grade 3+ treatment-related AE [6]: 8% | Thrombocytopenia, grade 3+ treatment-related AE [6]: 25% | Patients with treatment-related grade 3+ AEs [6]: 58% | Anemia, treatment-related AE grade ≥3 [7]: 1 (8.3) no. (%) | Decreased appetite, treatment-related AE grade ≥3 [7]: 1 (8.3) no. (%) | Fatigue, treatment-related AE grade ≥3 [7]: 0 (0) no. (%) | Febrile neutropenia, treatment-related AE grade ≥3 [7]: 4 (33.3) no. (%) | Leukopenia, treatment-related AE grade ≥3 [7]: 4 (33.3) no. (%) | Lymphocyte count decreased, treatment-related AE grade ≥3 [7]: 5 (41.7) no. (%) | Neutropenia, treatment-related AE grade ≥3 [7]: 6 (50) no. (%) | Pneumonia, treatment-related AE grade ≥3 [7]: 1 (8.3) no. (%) | Stomatitis, treatment-related AE grade ≥3 [7]: 0 (0) no. (%) | Thrombocytopenia, treatment-related AE grade ≥3 [7]: 3 (25) no. (%) | Anemia, treatment-related AE grade ≥3 [8]: 3 (11.1) no. (%) | Decreased appetite, treatment-related AE grade ≥3 [8]: 1 (3.7) no. (%) | Fatigue, treatment-related AE grade ≥3 [8]: 1 (3.7) no. (%) | Febrile neutropenia, treatment-related AE grade ≥3 [8]: 4 (14.8) no. (%) | Leukopenia, treatment-related AE grade ≥3 [8]: 7 (25.9) no. (%) | Lymphocyte count decreased, treatment-related AE grade ≥3 [8]: 5 (18.5) no. (%) | Neutropenia, treatment-related AE grade ≥3 [8]: 11 (40.7) no. (%) | Pneumonia, treatment-related AE grade ≥3 [8]: 1 (3.7) no. (%) | Stomatitis, treatment-related AE grade ≥3 [8]: 1 (3.7) no. (%) | Thrombocytopenia, treatment-related AE grade ≥3 [8]: 7 (25.9) no. (%) | Dose-limiting toxicities (DLT) (phase 1b, DL1 37 mg TP-0903 + decitabine, six evaluable patients): No DLTs were observed
